From patent US6413947B1, “Anilide derivative, production and use thereof” (Takeda Chemical Industries, Ltd., priority 1997, dated 2002)

Tests used:
human CCR5 = target: T1, human CCR5 (Homo sapiens, UniProt P51681); test: CCR5 antagonistic activity ([125I]-RANTES binding to CHO/CCR5 cells); conditions: Test Compound 1 μM, 100 pM [125I]-RANTES, room temperature 30 minutes; for inhibition at 1 µM: read-out: Inhibition Rate (%) to CCR5 binding
T1 construct: expressed in transfected cells; host or cells: CHO-K1 cells, geneticin-resistant clone CHO/CCR5
T1 sequence (P51681 whole entry): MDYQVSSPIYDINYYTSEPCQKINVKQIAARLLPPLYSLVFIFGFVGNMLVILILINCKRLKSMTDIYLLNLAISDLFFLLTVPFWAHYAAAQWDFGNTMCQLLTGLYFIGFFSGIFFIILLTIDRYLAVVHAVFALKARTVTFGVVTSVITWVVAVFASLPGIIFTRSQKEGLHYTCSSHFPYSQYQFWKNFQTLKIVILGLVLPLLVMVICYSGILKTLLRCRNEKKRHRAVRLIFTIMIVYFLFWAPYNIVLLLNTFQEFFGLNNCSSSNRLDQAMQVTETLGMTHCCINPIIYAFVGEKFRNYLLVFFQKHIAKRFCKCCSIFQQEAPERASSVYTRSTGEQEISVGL
Method: Cloning of CCR5 gene was carried out by PCR (polymerase chain reaction) from human spleen cDNA. With using 0.5 ng of spleen cDNA (Toyobo, QUICK-Clone cDNA) as template, PCR was performed in DNA Thermal Cycler 480 (Perkin-Elmer) (reaction conditions: 30 cycles of 95° C. for 1 minute, 60° C. for 1 minute, and 75° C. for 5 minutes) by adding primer set, 5′-CAGGATCCGATG […]-3′ (25 pmol) and 5′-TCTAGATCACAAGCC CACAGATATTTCCTGCTCC-3′ (25 pmol), which were designed referring to nucleotide sequence of CCR5 gene reported by Samson et al. (Biochemistry, 35(11), 3362-3367 (1996)) and by using TaKaRa EX Taq (Takara Shuzo). The resultant PCR product was subjected to agarose gel electrophoresis to collect about 1.0 kb DNA fragment, which was subjected to Original TA Cloning Kit (Funakoshi) to carry out cloning of CCR5 gene.
The plasmid obtained in the above (1) was digested with restriction enzymes XbaI (Takara Shuzo) and BamHI (Takara Shuzo) and subjected to agarose gel electrophoresis to collect about 1.0 kb DNA fragment. The DNA fragment was mixed with plasmid pcDNA3.1 (Funakoshi) for expression in animal cells, said plasmid being digested with XbaI and BamHI, and they were ligated with DNA Ligation Kit Ver.2 (Takara Shuzo). The resulting plasmid was subjected to transformation of competent cell of E. coli JM109 (Takara Shuzo) to obtain plasmid pCKR5.
CHO-K1 cells were grown in 750 ml of tissue culture flask (Becton Dickinson) using Ham's F12 medium (Nihon Pharmaceutical) containing 10% fetal calf serum (Life Tech Oriental) and took off with 0.5 g/L trypsin-0.2 g/L EDTA (Life Tech Oriental). The cells were washed with PBS (Life Tech Oriental), centrifuged (1000 rpm, 5 minutes), and suspended in PBS. With using Gene Pulser (Bio-Rad Laboratories), DNA was introduced into the cells under the conditions shown below. That is, to the cuvette of 0.4 cm gap were added 8×10^6 cells and 10 μg of plasmid pCKR5 for expression of human CCR5, and electroporation was carried out under 0.25 kV of voltage and 960 μF of capacitance. The cells were transferred into Ham's F12 medium (Nihon Pharmaceutical) containing 10% fetal calf serum, and cultivated for 24 hours. The cells were again took off and centrifuged, and suspended in Ham's F12 medium (Nihon Pharmaceutical) containing 10% fetal calf serum and 500 μg/ml of geneticin (Life Tech Oriental). The suspension was diluted to give 1 cells/ml of the suspension, which was inoculated on 96 well plate (Becton Dickinson) to give geneticin resistant cells. The resulting geneticin resistant cells were cultivated in 96 well plate (Becton Dickinson), and cells expressing CCR5 were selected from the geneticin resistant cells. That is, in assay buffer (Ham's F12 medium containing 0.5% BSA and 20 mM HEPES (Wako Pure Chemical, pH7.2) to which was added 200 pM of [^125I]-RANTES (Amersham) as ligand, binding reaction was carried out at room temperature for 40 minutes, and the buffer was washed with cooled PBS. To the buffer was added 50 μl/well of 1M NaOH, and the mixture was stirred. Radioactivity was determined with γ-counter to select CHO/CCR5 cells which specifically bind to the ligand.
The CHO/CCR5 were inoculated on 96 well microplate (5×10^4 cells/well) and cultivated for 24 hours. […] Radio-activity was determined with Top-Count Micro Scintillation Counter (Packard Instrument, Inc.). […]

HIV-1 BA-L [1] = test: Inhibitory effect on HIV-1 infection to MAGI-CCR5 cell; format: cell-based; conditions: 2 days
Method: The plasmid where β-galactosidase gene was ligated downstream of HIV-1 LTR was introduced into CD4 positive HeLa cell, to which human CCR5 was further introduced to obtain transformant MAGI-CCR5. By using said transformant MAGI-CCR5, degree of HIV-1 infection was calculated from β-galactosidase activity (blue color due to decomposition of 5-bromo-4-chloro-3-indolyl-β-D-galactopyranoside). Specifically, MAGI-CCR5 cells were suspended in DMEM medium containing 10% serum to prepare 5×10^4 cells/ml suspension. To each well of 96 well plate was inoculated 200 μl of the suspension, and the cells were cultivated at 37° C. overnight. The medium was removed by means of suction, and to the residue was added 100 μl of the above medium containing 1.6 μM of Test Compound 96 or 0.064 μM of Test Compound 248 and 100 μl of the above medium containing 300PFU of HIV-1 BA-L cells. The cells were cultivated at 37° C. for 2 days. The medium was removed by means of suction. To the residue was added 200 μl of cell fixative (PBS containing 1% formaldehyde and 0.2% glutaraldehyde), and the mixture was allowed to stand at room temperature for 5 minutes and washed twice with PBS. […] The number of blue cells was counted by microscope and defined as the number of cells infected with HIV-1.

HIV-1 BA-L [2] = test: Inhibitory effect on HIV-1 infection to human PBMC; format: cell-based; conditions: human PBMC stimulated with PHA and IL-2, 7 days
Method: From normal person human peripheral blood mononuclear cells (PBMC) were separated, and the cells were stimulated with 10 μg/ml of PHA (Phytohemaglutinin) and 20 U/ml of interleukin-2 (IL-2) for 3 days. The cells were suspended in RPMI-1640 medium containing 20% serum to prepare 1×10^6/ml suspension. To the suspension were infected HIV-1 BA-L cells (20 ng as an amount of p24 antigen), and viruses were absorbed at 37° C. for 2 hours. The cells were washed and suspended in RPMI-1640 medium containing 20% serum and IL-2 20 U/ml to prepare 1×10^5/ml suspension. To the PBMC suspension was added the same amount of a solution which contains 2.0 μM of Test Compound 96 or 0.32 μM of Test Compound 248, and the cells were cultivated at 37° C. for 7 days in carbon dioxide gas incubator. The amount of p24 antigen in supernatant of the cultivated medium was determined by enzyme-linked immunosorbent assay (ELISA) and defined as degree of HIV-1 infection.

| Molecule | inhibition at 1 µM (human CCR5) [%] | Inhibition Rate (%) to CCR5 binding (human CCR5) [%] | further results |
| --- | --- | --- | --- |
| CCOc1ccc(-c2ccc3c(c2)C=C(C(=O)Nc2ccc(C[N+](C)(C)C4CCOCC4)cc2)CCO3)cc1 [Compound 250, N-(4-(((7-(4-ethoxyphenyl)-2,3-dihydro-1-benzoxepin-4-yl)carbonyl)amino)benzyl)-N,N-dimethyl-N-(4-tetrahydropyranyl)ammonium chloride] | 96 | – | – |
| Cc1ccc(-c2ccc3c(c2)C=C(C(=O)Nc2ccc(C[N+]4(C)CCCCC4)cc2)CCO3)cc1 [Compound 96, 1—(N-(7—(4-methylphenyl)-2,3-dihydro-1-benzoxepin-4-carbonyl)-4-aminobenzyl)-1-methylpiperidinium iodide] | – | – | inhibition on HIV-1 infection (number of blue cells) (HIV-1 BA-L [1]; 100 μl medium containing 1.6 μM of Test Compound plus 100 μl medium with 300PFU HIV-1 BA-L): 92%; inhibition on HIV-1 infection (p24 antigen in supernatant, ELISA) (HIV-1 BA-L [2]; same amount of a solution containing 2.0 μM of Test Compound added): 96% |
| Cc1ccc(-c2ccc3c(c2)C=C(C(=O)Nc2ccc(C[N+](C)(C)C4CCOCC4)cc2)CCC3)cc1 [Compound 248, N,N-dimethyl-N-(4-(((2-(4-methylphenyl)-6,7-dihydro-5H-benzocyclohepten-8-yl)carbonyl)amino)benzyl)-N-(4-tetrahydropyranyl)ammonium chloride] | 99 | – | inhibition on HIV-1 infection (number of blue cells) (HIV-1 BA-L [1]; 100 μl medium containing 0.064 μM of Test Compound plus 100 μl medium with 300PFU HIV-1 BA-L): 100%; inhibition on HIV-1 infection (p24 antigen in supernatant, ELISA) (HIV-1 BA-L [2]; same amount of a solution containing 0.32 μM of Test Compound added): 74% |
| CC(C)(C)c1ccc(-c2ccc3c(c2)C=C(C(=O)Nc2ccc(CP4(=O)CCCCC4)cc2)CCO3)cc1 [Compound 180, N-(4—(pentamethylene)phosphorylmethylphenyl)-7—(4-tert-butylphenyl)-2,3-dihydro-1-benzoxepine-4-carboxamide] | – | 99 | – |
| N-((7—(4-methylphenyl)-2,3-dihydro-1-benzoxepin-4-carbonyl)-2—(4-aminophenyl)ethyl)-N-methylpiperidinium iodide [Compound 100] | – | 100 | – |
| Cc1ccc(-c2ccc(/C=C/C(=O)Nc3ccc(CP4(=O)CCCCC4)cc3)s2)cc1 [Compound 209, (E)-N-(4-pentamethylenephosphorylmethylphenyl)-3-[5—(4-methylphenyl)thiophen-2-yl]acrylic amide] | – | 80 | – |
